The source of these data is patent US8466113B2, “4-isopropylphenyl glucitol compounds as SGLT1 inhibitors” (Taisho Pharmaceutical Co., Ltd., priority 2009, dated 2013).

A short description of this series: Kidney concentrations until one week after single oral administration. The format is in vivo. The note with it: Sprague-Dawley (SD/IGS), rat, male Sprague-Dawley rats; for concentration at 24 h / concentration at 72 h / concentration at 168 h: single oral 1 mg/kg. The procedure: (1) Changes in Kidney Concentrations of Compounds Disclosed in WO07/136116 Until One Week After Oral Administration
SD/IGS rats at 7 weeks of age (male, non-fasting, Charles River Laboratories Japan Inc.) were orally administered with compound 10 or 33 (1 mg/kg) or compound 11 (0.3 mg/kg) prepared in a 0.5% aqueous CMC solution. At 24, 72 and 168 hours after drug administration, the rats were exsanguinated via the postcaval vein under ether anesthesia, and their kidneys were excised after they were confirmed to be euthanized. After the tissue surface was washed with physiological saline, each tissue was measured for its weight and homogenized in 4 volumes of purified water under ice cooling. To each homogenate, an acetonitrile/methanol solution containing an internal standard substance was added to remove proteins, and the supernatant was then subjected to LC-MS/MS (Applied Biosystems API3000). Drug-derived ions generated by electrospray ionization in positive ion mode were detected by selective reaction monitoring. The peak area of the resulting extracted ion chromatogram was analyzed by the internal standard method to calculate the drug concentration in the homogenate.
The internal standard substance used for compounds 10 and 33 was (1S)-1,5-anhydro-1-[5-(4-ethoxybenzyl)-2-methoxy-4-methylphenyl]-1-thio-D-glucitol,ethyl-D5, while the internal standard substance used for compound 11 was compound 11 (trishydroxymethyl-D6; —C(CD2OH)3).

Where [1] appears, read: read-out: Concentration of compounds in kidney After 1 day.
[2] abbreviates: read-out: Concentration of compounds in kidney After 3 days.
[3] abbreviates: read-out: Concentration of compounds in kidney After 7 days.

`Cc1cc(O)c([C@@H]2O[C@H](CO)[C@@H](O)[C@H](O)[C@H]2O)cc1Cc1ccc(CCNC(=O)NC2CCN(Cc3ccccc3)CC2)cc1` [compound 33]: the concentration at 24 h under setting [1] came to 29.8 ± 6.79 ng/g. Also, under setting [2], the concentration at 72 h came out at 25.5 ± 8.68 ng/g. The concentration at 168 h under setting [3] worked out at 16.2 ± 3.11 ng/g.

With `Cc1cc(O)c([C@@H]2O[C@H](CO)[C@@H](O)[C@H](O)[C@H]2O)cc1Cc1ccc(CCNC(=O)NC(CO)(CO)CO)cc1` [compound 11], the concentration at 1 day (single oral 0.3 mg/kg, mean ± S.D., read-out: Concentration of compounds in kidney After 1 day) came out at 63.5 ± 20.1 ng/g. Also, for the setting “single oral 0.3 mg/kg, mean ± S.D., read-out: Concentration of compounds in kidney After 3 days”, the concentration at 3 days is 67.3 ± 3.15 ng/g. The concentration at 7 days (single oral 0.3 mg/kg, mean ± S.D., read-out: Concentration of compounds in kidney After 7 days) was found to be 48.7 ± 18.3 ng/g.

As to `Cc1cc(O)c([C@@H]2O[C@H](CO)[C@@H](O)[C@H](O)[C@H]2O)cc1Cc1ccc(CCNC(=O)NC(C)(C)CO)cc1` [compound 10], the concentration at 24 h under setting [1] was found to be 167 ± 36.3 ng/g. Besides, under setting [2], the concentration at 72 h is 124 ± 21.2 ng/g. Under setting [3], the concentration at 168 h was 53.8 ± 7.61 ng/g.
